In patent US8198405B2, “Stabilized alpha helical peptides and uses thereof” (Dana-Farber Cancer Institute, Inc., priority 2003, dated 2012):
Where a SMILES comes first, the peptide text is derived from it. Bridges are numbered along the chain shown (N, C = ends). [ ]: non-standard residue; d: D form. S5 = C=CCCC[C@](C)(N)C(=O)O; Nle = CCCC[C@H](N)C(=O)O

Key:
[1] = system: REH, MV4; 11, and SEMK2 cell lines; assay: Apoptosis induction assays; assay type: cell-based
Jurkat leukemia cells = assay: Apoptosis by annexin V flow cytometry; assay type: cell-based; conditions: 10 μM, 20 hours
Protocol: Indeed, the pro-apoptotic effect of 10 uM SAHB3BIDA and B on “wild-type” Jurkats was abolished in the BCL-2 overexpressing cells. […] The observed pro-apoptotic effects are selectively abolished by gly to glu mutation of SAHB3BIDA and cellular overexpression of BCL-2, findings which underscore that SAHB3BID compounds function via the defined mitochondrial apoptosis pathway.

[2] = system: purified mouse liver mitochondria; assay: Cytochrome c release assay (ELISA), wild-type mitochondria; assay type: biochemical; conditions: wild-type versus Bak-/- mitochondria
Protocol: In order to assess the biological activity of SAHB3BID compounds in vitro, cytochrome c release assays were performed using purified mouse liver mitochondria. Mitochondria (0.5 mg/mL) were incubated for 40 minutes with 1 μM and 100 nM of SAHB3BID compounds and then supernatants and mitochondrial fractions isolated and subjected to cytochrome c ELISA assay. Background cytochrome c release (10-15%) was subtracted from total release for each sample, and the percent actual cytochrome c release was determined (FIG. 12). […] In each case, except for the double cross-linked SAHB3BIDE (which may lack critical amino acids for biological activity or, in this case, be overly constrained by the dual cross-links), there is approximately a doubling of cytochrome c release in response to 1 μM SAHB3BID compounds compared to the unmodified peptide (FIG. 12a). […] BID mutants with defective BH3 domains can promote BAK-independent cytochrome c mobilization (Scorrano et al, Dev Cell, 2:55), and the highly hydrophobic BID helix 6 has been implicated in this activity (L. Scorrano, S. J. Korsmeyer, unpublished results).
Similar to the above experiment, mouse liver mitochondria from wild-type and Bak−/− mice were exposed to the compounds at various concentrations and assayed for cytochrome c release at 10 and 40 minute intervals. […] Thus, SAHB3BIDA and B display a 10-25 fold enhancement in cytochrome c release activity at the 40 minute time point.

BAX = molecular target: T1, BAX (Homo sapiens, UniProt Q07812); assay: Fluorescence polarization direct binding assay; conditions: full-length BAX
T1 construct: Full-length BAX protein was prepared as previously described (Suzuki et al, Cell, 103:645); made in house
T1 sequence (Q07812 whole entry): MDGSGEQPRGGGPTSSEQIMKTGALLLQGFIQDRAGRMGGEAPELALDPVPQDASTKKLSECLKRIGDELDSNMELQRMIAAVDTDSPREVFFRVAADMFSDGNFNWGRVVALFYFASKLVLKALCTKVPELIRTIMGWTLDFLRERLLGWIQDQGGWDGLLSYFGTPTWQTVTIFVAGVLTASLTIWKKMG

BCL-2 = molecular target: T2, BCL-2 (Homo sapiens, UniProt P10415); assay: Fluorescence polarization direct binding assay; conditions: fluorescinated compounds 25 nM, GST-BCL2 25 nM-1000 nM (FIG. 11d)
T2 construct: containing the plasmid encoding C-terminal deleted GST-BCL-2; made in house; host or cells: Escherichia coli BL21 (DE3)
T2 sequence (P10415 1-218 limits assumed): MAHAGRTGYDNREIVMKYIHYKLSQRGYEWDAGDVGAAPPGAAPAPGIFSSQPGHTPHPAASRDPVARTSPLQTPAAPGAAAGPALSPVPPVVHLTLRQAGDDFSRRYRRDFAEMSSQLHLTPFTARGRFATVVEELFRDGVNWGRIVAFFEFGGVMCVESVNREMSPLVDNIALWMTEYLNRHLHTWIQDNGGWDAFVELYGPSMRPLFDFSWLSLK

- BAX binding, in words (BAX): measurable binding
- Kd (BCL-2): 483 nM
SMILES: CCCC[C@H](NC(=O)[C@]1(C)CCCC=CCCC[C@](C)(NC(=O)[C@H](C)NC(=O)[C@H](CC(C)C)NC(=O)[C@H](Cc2c[nH]cn2)NC(=O)[C@H](CCCNC(=N)N)NC(=O)[C@H](C)NC(=O)[C@@H](NC(=O)[C@H](CC(N)=O)NC(=O)[C@H](CCCNC(=N)N)NC(=O)[C@@H](NC(=O)[C@@H](NC(=O)[C@H](CC(=O)O)NC(=O)[C@H](CCC(=O)O)NC(C)=O)[C@@H](C)CC)[C@@H](C)CC)[C@@H](C)CC)C(=O)N[C@@H](C(C)C)C(=O)N[C@@H](CCC(=O)O)C(=O)N[C@@H](CC(=O)O)C(=O)N1)C(=O)N[C@@H](CC(=O)O)C(=O)N[C@@H](CCCNC(=N)N)C(=O)N[C@@H](CO)C(=O)N[C@H](C(=O)N[C@@H](Cc1c[nH]c2ccccc12)C(N)=O)[C@@H](C)CC [SAHB3BID(G→E)A] (Ac-EDIIRNIARHLA[S5]VED[S5][Nle]DRSIW-NH2; staple 13-17; N-terminus assumed)
- apoptosis induction, in words [1]: no effect
- apoptosis induction, in words (Jurkat leukemia cells): no effect
- Bak dependence of cytochrome c release, in words [2]: only Bak-independent cytochrome c release
